Results on 23 compounds are retold here after patent US20230019236A1, “PROTEIN TYROSINE PHOSPHATASE INHIBITORS AND METHODS OF USE THEREOF” (Calico Life Sciences LLC, priority 2019, published 2023).

The target in this test is T1, His tagged full-length PTP1B protein (Homo sapiens, UniProt P18031).
T1 construct: made in house
T1 sequence (P18031 with tags, fused parts or gaps): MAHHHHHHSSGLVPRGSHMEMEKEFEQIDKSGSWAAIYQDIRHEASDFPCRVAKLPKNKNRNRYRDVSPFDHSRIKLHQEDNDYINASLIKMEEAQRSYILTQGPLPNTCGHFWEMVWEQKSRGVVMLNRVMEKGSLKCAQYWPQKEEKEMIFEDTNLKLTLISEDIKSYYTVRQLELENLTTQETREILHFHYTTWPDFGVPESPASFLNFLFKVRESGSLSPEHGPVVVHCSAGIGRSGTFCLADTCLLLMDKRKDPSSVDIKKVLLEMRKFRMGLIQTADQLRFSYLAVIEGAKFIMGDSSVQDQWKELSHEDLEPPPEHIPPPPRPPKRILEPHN
The experiment in a line: Mobility Shift Assay (MSA) used to determine potency of PTP1B inhibitors. It is filed as biochemical. Particulars: Table 2. As for the experimental part:
The enzymatic assay used to determine activity is a mobility shift assay using a LabChip EZ Reader by Caliper Life Sciences. The enzymatic reaction was carried out in assay buffer (50 mM HEPES pH 7.5, 1 mM EGTA, 10 mM EDTA, 0.01% Tween® 20, and 2 mM DTT). […] The enzyme (at 0.5 nM) was incubated with compound for 10 minutes at room temperature. […] The % inhibition was then used to calculate the IC50 values.

Structures are written as SMILES.

Take `O=C1CN(c2c(O)cc3ccc(CO)cc3c2F)S(=O)(=O)N1` [Compound 185, 5-[1-fluoro-3-hydroxy-7-(hydroxymethyl)naphthalen-2-yl]-1λ^6,2,5-thiadiazolidine-1,1,3-trione]: the IC50 (usually the concentration that gives 50% inhibition) lay in the range of 10 to 100 nM. The same measure for `CNC(=O)CCCOc1ccc2cc(O)c(N3CC(=O)NS3(=O)=O)c(F)c2c1` [Compound 269, 4-{[8-fluoro-6-hydroxy-7-(1,1,4-trioxo-1λ^6,2,5-thiadiazolidin-2-yl)naphthalen-2-yl]oxy}—N-methylbutanamide]: 1 to 10 nM; for `COc1ccc2c(Cl)c(O)c(N3CC(=O)NS3(=O)=O)c(F)c2c1` [Compound 238, 5-(4-chloro-1-fluoro-3-hydroxy-7-methoxynaphthalen-2-yl)-1λ^6,2,5-thiadiazolidine-1,1,3-trione]: > 100 nM. In the case of `CC(C)CCNc1ccc2c(F)c(O)c(N3CC(=O)NS3(=O)=O)c(F)c2c1` [Compound 148, 5-{1,4-difluoro-3-hydroxy-7-[(3-methylbutyl)amino]naphthalen-2-yl}-1λ^6,2,5-thiadiazolidine-1,1,3-trione], the IC50 was > 100 nM. As for `COCCNc1ccc2cc(O)c(N3CC(=O)NS3(=O)=O)c(F)c2c1` [Compound 179, 5-{1-fluoro-3-hydroxy-7-[(2-methoxyethyl)amino]naphthalen-2-yl}-1λ^6,2,5-thiadiazolidine-1,1,3-trione], the IC50 is > 100 nM. For `O=C1CN(c2c(O)cc3ccc(OCCOCC4CC4)cc3c2F)S(=O)(=O)N1` [Compound 212, 5-{7-[2-(cyclopropylmethoxy)ethoxy]-1-fluoro-3-hydroxynaphthalen-2-yl}-1λ^6,2,5-thiadiazolidine-1,1,3-trione] the value was 1 to 10 nM; for `COCCS(=O)(=O)N1CC=C(c2ccc3cc(O)c(N4CC(=O)NS4(=O)=O)c(F)c3c2)C1` [Compound 286, 5-{1-fluoro-3-hydroxy-7-[1-(2-methoxyethanesulfonyl)-2,5-dihydro-1H-pyrrol-3-yl]naphthalen-2-yl}-1λ^6,2,5-thiadiazolidine-1,1,3-trione], < 1 nM.

`O=C1CN(c2c(O)cc3ccc(OCCNCCOC(F)(F)F)cc3c2F)S(=O)(=O)N1` [Compound 137, 5-[1-fluoro-3-hydroxy-7-(2-{[2-(trifluoromethoxy)ethyl]amino}ethoxy)naphthalen-2-yl]-1λ^6,2,5-thiadiazolidine-1,1,3-trione]: the IC50 lay within 1 to 10 nM.

Take `CCCCS(=O)(=O)N1CC=C(c2ccc3cc(O)c(N4CC(=O)NS4(=O)=O)c(F)c3c2)C1` [Compound 291, 5-{7-[1-(butane-1-sulfonyl)-2,5-dihydro-1H-pyrrol-3-yl]-1-fluoro-3-hydroxynaphthalen-2-yl}-1λ^6,2,5-thiadiazolidine-1,1,3-trione]: the IC50 is < 1 nM. On to `O=C1CN(c2c(O)cc3ccc(OCCNC4CC4)cc3c2F)S(=O)(=O)N1` [Compound 142, 5-{7-[2-(cyclopropylamino)ethoxy]-1-fluoro-3-hydroxynaphthalen-2-yl}-1λ^6,2,5-thiadiazolidine-1,1,3-trione], for which the IC50 was 10 to 100 nM. As for `O=C1CN(c2c(O)cc3ccc(OCCN4CCC4)cc3c2F)S(=O)(=O)N1` [Compound 105, 5-{7-[2-(azetidin-1-yl)ethoxy]-1-fluoro-3-hydroxynaphthalen-2-yl}-1λ^6,2,5-thiadiazolidine-1,1,3-trione], the IC50 was 1 to 10 nM. As for `CC(C)CS(=O)(=O)N1CC=C(c2ccc3cc(O)c(N4CC(=O)NS4(=O)=O)c(F)c3c2)C1` [Compound 300, 5-{1-fluoro-3-hydroxy-7-[1-(2-methylpropane-1-sulfonyl)-2,5-dihydro-1H-pyrrol-3-yl]naphthalen-2-yl}-1λ^6,2,5-thiadiazolidine-1,1,3-trione], the IC50 is < 1 nM. In the case of `N#CCCCCOc1ccc2cc(O)c(N3CC(=O)NS3(=O)=O)c(F)c2c1` [Compound 111, 5-{[8-fluoro-6-hydroxy-7-(1,1,4-trioxo-1λ^6,2,5-thiadiazolidin-2-yl)naphthalen-2-yl]oxy}pentanenitrile], the IC50 was in the range of 1 to 10 nM. On to `O=C1CN(c2c(O)cc3ccc(C4=CCN(S(=O)(=O)CCCC(F)(F)F)C4)cc3c2F)S(=O)(=O)N1` [Compound 290, 5-{1-fluoro-3-hydroxy-7-[1-(4,4,4-trifluorobutane-1-sulfonyl)-2,5-dihydro-1H-pyrrol-3-yl]naphthalen-2-yl}-1λ^6,2,5-thiadiazolidine-1,1,3-trione], for which the IC50 was < 1 nM.

Take `O=C1CN(c2c(O)cc3ccc(/C=C/C4CC4)cc3c2F)S(=O)(=O)N1` [Compound 239, 5-{7-[(E)-2-cyclopropylethenyl]-1-fluoro-3-hydroxynaphthalen-2-yl}-1λ^6,2,5-thiadiazolidine-1,1,3-trione]: the IC50 is 10 to 100 nM. With `N#CCCCOc1ccc2cc(O)c(N3CC(=O)NS3(=O)=O)c(F)c2c1` [Compound 129, 4-{[8-fluoro-6-hydroxy-7-(1,1,4-trioxo-1λ^6,2,5-thiadiazolidin-2-yl)naphthalen-2-yl]oxy}butanenitrile], the IC50 is < 1 nM. With `O=C1CN(c2c(O)cc3ccc(C(=O)NCC4CC4)cc3c2F)S(=O)(=O)N1` [Compound 136, N-(cyclopropylmethyl)-8-fluoro-6-hydroxy-7-(1,1,4-trioxo-1λ^6,2,5-thiadiazolidin-2-yl)naphthalene-2-carboxamide], the IC50 is 10 to 100 nM.

For the compound `O=C1CN(c2c(O)cc3ccc(C4=CCN(S(=O)(=O)c5ccccc5)C4)cc3c2F)S(=O)(=O)N1` [Compound 315, 5-{7-[1-(benzenesulfonyl)-2,5-dihydro-1H-pyrrol-3-yl]-1-fluoro-3-hydroxynaphthalen-2-yl}-1λ^6,2,5-thiadiazolidine-1,1,3-trione], the IC50 is < 1 nM.

`CC(C)CCCc1ccc2cc(O)c(N3CC(=O)NS3(=O)=O)c(F)c2c1` [Compound 219, 5-[1-fluoro-3-hydroxy-7-(4-methylpentyl)naphthalen-2-yl]-1λ^6,2,5-thiadiazolidine-1,1,3-trione]: the IC50 lay in the range of 10 to 100 nM. Consider `O=C1CN(c2c(O)cc3ccc(-c4cnn(CC5CC5)c4)cc3c2F)S(=O)(=O)N1` [Compound 132, 5-{7-[1-(cyclopropylmethyl)-1H-pyrazol-4-yl]-1-fluoro-3-hydroxynaphthalen-2-yl}-1λ^6,2,5-thiadiazolidine-1,1,3-trione], for which the IC50 is < 1 nM. The same measure for `O=C1CN(c2c(O)cc3ccc(CC4CCN(CC(F)(F)F)CC4)cc3c2F)S(=O)(=O)N1` [Compound 252, 5-(1-fluoro-3-hydroxy-7-{[1-(2,2,2-trifluoroethyl)piperidin-4-yl]methyl}naphthalen-2-yl)-1λ^6,2,5-thiadiazolidine-1,1,3-trione]: 1 to 10 nM. In the case of `O=C1CN(c2c(O)cc3ccc(NCCc4ccccc4)cc3c2F)S(=O)(=O)N1` [Compound 164, 5-{1-fluoro-3-hydroxy-7-[(2-phenylethyl)amino]naphthalen-2-yl}-1λ^6,2,5-thiadiazolidine-1,1,3-trione], the IC50 was > 100 nM. Regarding `O=C1CN(c2c(O)cc3ccc(NCC4CC4)cc3c2F)S(=O)(=O)N1` [Compound 202, 5-{7-[(cyclopropylmethyl)amino]-1-fluoro-3-hydroxynaphthalen-2-yl}-1λ^6,2,5-thiadiazolidine-1,1,3-trione], the IC50 is 10 to 100 nM.
